Measured values reported in patent US10253002B2, “Compounds and methods of treating infections” (Neoculi Pty Ltd., priority 2013, dated 2019).
In brackets after ≈: the same amount, converted by molar mass. Several values for one entry are separate records, joined by “and”; a condition that tells them apart may be missing. Equal entries are not always repeated. Where two headings read alike, the source gives them in different places.

Legend:
[1] = system: MRSA; assay: Broth microdilution MIC, Example 7 (NCL812 and analogues); assay type: cell-based, Staphylococcus aureus; conditions: for activity against MRSA among analogues: MIC testing, two MRSA strains; for MIC: Staphylococcus aureus; for MRSA / MIC: MRSA
Method in brief: (§1)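 CLSI broth microdilution against two MRSA and two VRE strains, tested in duplicate with a third run if results differed by more than one two-fold dilution.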

[2] = system: Pseudomonas aeruginosa; assay: as above; assay type: cell-based; conditions: for MIC: Pseudomonas aeruginosa, 24 h
[3] = system: VRE; assay: as above; assay type: cell-based, Enterococcus spp.; conditions: for activity against VRE among analogues: MIC testing, two VRE strains; for MIC: Enterococcus; for VRE / MIC: VRE
Method in brief: as §1

[4] = system: Escherichia coli; assay: as above; assay type: cell-based; conditions: 24 hours; for MIC: Escherichia coli
[5] = Bioassay ranking of the analogues tested; conditions: M + R (MRSA and VRE combined)
[6] = MRSA 1, 24 hours, duplicate lines per compound
[7] = MRSA 2, 24 hours, duplicate lines per compound
[8] = P. aeruginosa, 24 hours, duplicate lines per compound
[9] = VRE 1, 24 hours, duplicate lines per compound
[10] = VRE 2, 24 hours, duplicate lines per compound
[11] = E. coli, duplicate lines per compound
[12] = isolate MRSA 1, 24 hours, 1st and 2nd replicate rows
[13] = isolate MRSA 2, 24 hours, 1st and 2nd replicate rows
[14] = 24 hours, 1st and 2nd replicate rows
[15] = isolate VRE 1, 24 hours, 1st and 2nd replicate rows
[16] = isolate VRE 2, 24 hours, 1st and 2nd replicate rows
[17] = 24 h, read-out: MIC (μg/ml) at 24 hours MRSA 1, MRSA 1, 24 hours
[18] = 24 h, read-out: MIC (μg/ml) at 24 hours MRSA 2, MRSA 2, 24 hours
[19] = bioassay ranking, read-out: MRSA
[20] = read-out: MIC (μg/ml) at 24 hours P. aeruginosa, P. aeruginosa, 24 hours
[21] = 24 h, read-out: MIC (μg/ml) at 24 hours VRE 1, VRE 1, 24 hours
[22] = 24 h, read-out: MIC (μg/ml) at 24 hours VRE 2, VRE 2, 24 hours
[23] = bioassay ranking, read-out: VRE
[24] = read-out: MIC (μg/ml) at 24 hours E. coli, E. coli
[25] = 24 h, read-out: MIC (μg/ml) at 24 hours, MRSA 1, MRSA 1, 24 hours, duplicate lines per compound
[26] = 24 h, read-out: MIC (μg/ml) at 24 hours, MRSA 2, MRSA 2, 24 hours, duplicate lines per compound
[27] = read-out: MIC (μg/ml) at 24 hours, P. aeruginosa, 24 hours, duplicate lines per compound
[28] = 24 h, read-out: MIC (μg/ml) at 24 hours, VRE 1, VRE 1, 24 hours, duplicate lines per compound
[29] = 24 h, read-out: MIC (μg/ml) at 24 hours, VRE 2, VRE 2, 24 hours, duplicate lines per compound
[30] = read-out: MIC (μg/ml) at 24 hours, E. coli, duplicate lines per compound

Row | MIC (μg/ml) at 24 hours, MRSA 1 [1, 6] | MIC (μg/ml) at 24 hours, MRSA 2 [1, 7] [µg/mL] | MIC (μg/ml) at 24 hours, P. aeruginosa [2, 8] [µg/mL] | MIC (μg/ml) at 24 hours, VRE 1 [3, 9] | MIC (μg/ml) at 24 hours, VRE 2 [3, 10] | MIC (μg/ml) at 24 hours, E. coli [4, 11] [µg/mL] | MIC (μg/ml) at 24 hours, MRSA 2 ([1]; MRSA 2, 24 hours) [µg/mL] | MIC (μg/ml) at 24 hours, VRE 2 ([3]; VRE 2, 24 hours) | Structure (SMILES) | activity against MRSA among analogues [1] | MRSA ([1]; bioassay ranking) [µg/mL] | activity against VRE among analogues [3] | VRE ([3]; bioassay ranking) [µg/mL] | M + R [5] [µg/mL] | other results
1 | 16 µg/mL | 8 | >128 | 8 µg/mL | 16 µg/mL | >128 |  |  | CN(C)c1ccc(C=NNC(=N)NN=Cc2ccc(N(C)C)cc2)cc1.Cl [NCL113] | greatest activity | 12 | greatest activity | 12 | 12 | 
2 |  |  |  |  |  |  | 8 (≈ 22 µM) | 8 µg/mL (≈ 22 µM) | Nc1nc(N/N=C/c2cccc(O)c2)cc(N/N=C/c2cccc(O)c2)n1 [NCL197] | greatest activity | 8 | greatest activity | 7 | 7.5 | MIC (μg/ml) at 24 hours, MRSA 1 ([1]; MRSA 1, 24 hours): 8 µg/mL (≈ 22 µM); MIC (μg/ml) at 24 hours, P. aeruginosa ([2]; P. aeruginosa, 24 hours): >128 µg/mL; MIC (μg/ml) at 24 hours, VRE 1 ([3]; VRE 1, 24 hours): 8 µg/mL and 4 µg/mL; MIC (μg/ml) at 24 hours, E. coli ([4]; E. coli): >128 µg/mL
3 |  |  |  |  |  |  |  |  | COc1cccc(C=NNC(=N)NN=Cc2cccc(OC)c2)c1.Cl [NCL029] | greatest activity | 32 | greatest activity | 32 | 32 | MIC (μg/ml) at 24 hours, MRSA 1 [1, 12]: 32 µg/mL; MIC (μg/ml) at 24 hours, MRSA 2 [1, 13]: 32 µg/mL; MIC (μg/ml) at 24 hours, P. aeruginosa [2, 14]: >128 µg/mL; MIC (μg/ml) at 24 hours, VRE 1 [3, 15]: 32 µg/mL; MIC (μg/ml) at 24 hours, VRE 2 [3, 16]: 32 µg/mL; MIC (μg/ml) at 24 hours, E. coli ([4]; 1st and 2nd replicate rows): >128 µg/mL
4 |  |  |  |  |  |  | 4 (≈ 8.18 µM) | 8 µg/mL (≈ 16.4 µM) | Nc1nc(N/N=C/c2ccc(Br)cc2)cc(N/N=C/c2ccc(Br)cc2)n1 [NCL193] | greatest activity |  | greatest activity |  | 3.75 | MIC [1, 17]: 2 µg/mL (≈ 4.09 µM); MIC [1, 18]: 2 µg/mL (≈ 4.09 µM); MIC [1, 19]: 2.5 µg/mL (≈ 5.11 µM); MIC [2, 20]: > 128 µg/mL; MIC [3, 21]: 4 µg/mL (≈ 8.18 µM); MIC [3, 22]: 4 µg/mL (≈ 8.18 µM); MIC [3, 23]: 5 µg/mL (≈ 10.2 µM); MIC [4, 24]: > 128 µg/mL
5 |  |  |  |  |  |  |  |  | Cc1ccccc1C=NNC(=N)NN=Cc1ccccc1C.Cl [NCL039] | greatest activity |  | greatest activity | 20 | 30 | MIC (μg/ml) at 24 hours, MRSA 1 [1, 12]: 32 µg/mL and 64 µg/mL; MIC (μg/ml) at 24 hours, MRSA 2 [1, 13]: 32 µg/mL; MIC (μg/ml) at 24 hours, P. aeruginosa [2, 14]: >128 µg/mL and >188 µg/mL; MIC (μg/ml) at 24 hours, VRE 1 [3, 15]: 32 µg/mL; MIC (μg/ml) at 24 hours, VRE 2 [3, 16]: 8 µg/mL; MIC (μg/ml) at 24 hours, E. coli ([4]; 1st and 2nd replicate rows): >128 µg/mL
6 | 8 µg/mL | 16 | >128 | 32 µg/mL | 128 µg/mL | >128 |  |  | Cl.N=C(N/N=C/c1ccccc1O)N/N=C/c1ccccc1O [NCL107] | greatest activity | 12 | greatest activity |  | 46 | 
7 |  |  |  |  |  |  |  |  | Cl.N=C(N/N=C/c1ccc(C(F)(F)F)cc1)N/N=C/c1ccc(C(F)(F)F)cc1 [NCL035] | greatest activity | 16 | greatest activity | 5 | 10.5 | MIC (μg/ml) at 24 hours, MRSA 1 [1, 12]: 16 µg/mL; MIC (μg/ml) at 24 hours, MRSA 2 [1, 13]: 16 µg/mL; MIC (μg/ml) at 24 hours, P. aeruginosa [2, 14]: >128 µg/mL; MIC (μg/ml) at 24 hours, VRE 1 [3, 15]: 8 µg/mL and 4 µg/mL; MIC (μg/ml) at 24 hours, VRE 2 [3, 16]: 4 µg/mL; MIC (μg/ml) at 24 hours, E. coli ([4]; 1st and 2nd replicate rows): >128 µg/mL
8 | 8 µg/mL and 4 µg/mL | 8 | >128 | 4 µg/mL | 2 µg/mL and 4 µg/mL | >128 |  |  | Cl.N=C(N/N=C/c1ccc(Cl)cc1)N/N=C/c1ccccc1Cl [NCL082] | greatest activity | 7 | greatest activity | 3.5 | 5.25 | 
9 | 8 µg/mL |  |  |  | 1 µg/mL |  |  |  | C/C(=N\NC(=N)N/N=C(\C)c1ccc(C(F)(F)F)cc1)c1ccc(Cl)cc1.Cl [NCL089] | greatest activity |  |  |  | 2.875 | MIC [1, 25]: 4 µg/mL; MIC [1, 26]: 4 µg/mL; MIC [1, 19]: 5 µg/mL; MIC [2, 27]: > 128 µg/mL; MIC [3, 28]: 0.5 µg/mL; MIC [3, 29]: 1 µg/mL; MIC [3, 23]: 0.75 µg/mL; MIC [4, 30]: > 128 µg/mL
10 |  | 8 |  |  |  |  |  |  | C/C(=N\NC(=N)N/N=C/c1ccc(Cl)cc1)c1ccc(C(F)(F)F)cc1.Cl [NCL080] | greatest activity |  | greatest activity |  | 4 | MIC [1, 25]: 4 µg/mL; MIC [1, 26]: 4 µg/mL; MIC [1, 19]: 5 µg/mL; MIC [2, 27]: > 128 µg/mL; MIC [3, 28]: 2 µg/mL; MIC [3, 29]: 4 µg/mL; MIC [3, 23]: 3 µg/mL; MIC [4, 30]: > 128 µg/mL
11 |  |  |  |  |  |  | 2 (≈ 5.56 µM) | 4 µg/mL (≈ 11.1 µM) | Cc1ccc(/C=N/Nc2cc(N/N=C/c3ccc(C)cc3)nc(N)n2)cc1 [NCL195, 4,6-bis(2-((E)-4-methylbenzylidene)hydrazinyl)pyrimidin-2-amine] | greatest activity |  | greatest activity |  | 2.75 | MIC (μg/ml) at 24 hours, MRSA 1 ([1]; MRSA 1, 24 hours): 2 µg/mL (≈ 5.56 µM); MIC [1, 17]: 2 µg/mL (≈ 5.56 µM); MIC [1, 18]: 2 µg/mL (≈ 5.56 µM); MIC [1, 19]: 2 µg/mL (≈ 5.56 µM); MIC [2, 20]: > 128 µg/mL; MIC [3, 21]: 4 µg/mL (≈ 11.1 µM); MIC [3, 22]: 2 µg/mL (≈ 5.56 µM); MIC [3, 23]: 3.5 µg/mL (≈ 9.74 µM); MIC [4, 24]: > 128 µg/mL
12 | 16 µg/mL and 8 µg/mL | 8 | >128 | 4 µg/mL | 4 µg/mL | >128 |  |  | Cl.N=C(NN=Cc1ccc(Cl)cc1)NN=Cc1ccccc1F [NCL088] | greatest activity | 10 | greatest activity | 4 | 7 | 
13 |  |  |  |  |  |  | 8 | 4 µg/mL and 8 µg/mL | CC(=NNC(=N)NN=C(C)c1ccc(Cl)cc1F)c1ccc(Cl)cc1F.Cl [NCL215] | greatest activity | 10 | greatest activity | 4.5 | 7.25 | MIC (μg/ml) at 24 hours, MRSA 1 ([1]; MRSA 1, 24 hours): 8 µg/mL and 16 µg/mL; MIC (μg/ml) at 24 hours, P. aeruginosa ([2]; P. aeruginosa, 24 hours): >128 µg/mL; MIC (μg/ml) at 24 hours, VRE 1 ([3]; VRE 1, 24 hours): 2 µg/mL and 4 µg/mL; MIC (μg/ml) at 24 hours, E. coli ([4]; E. coli): >128 µg/mL
14 | 16 µg/mL | 16 | >128 | 2 µg/mL and 1 µg/mL | 8 µg/mL and 4 µg/mL | >128 |  |  | Cl.N=C(N/N=C/c1ccc(Cl)cc1)N/N=C/c1ccc(Cl)cc1Cl [NCL074] | greatest activity | 16 | greatest activity | 3.75 | 9.875 | 

Row | Structure (SMILES) | MIC (μg/ml) at 24 hours, MRSA 1 [1, 6] | MIC (μg/ml) at 24 hours, MRSA 2 [1, 7] [µg/mL] | MIC (μg/ml) at 24 hours, P. aeruginosa [2, 8] [µg/mL] | MIC (μg/ml) at 24 hours, VRE 1 [3, 9] | MIC (μg/ml) at 24 hours, VRE 2 [3, 10] | MIC (μg/ml) at 24 hours, E. coli [4, 11] [µg/mL] | MIC (μg/ml) at 24 hours, MRSA 2 ([1]; MRSA 2, 24 hours) [µg/mL] | MIC (μg/ml) at 24 hours, VRE 2 ([3]; VRE 2, 24 hours) | activity against MRSA among analogues [1] | MRSA ([1]; bioassay ranking) [µg/mL] | activity against VRE among analogues [3] | VRE ([3]; bioassay ranking) [µg/mL] | M + R [5] [µg/mL] | other results
15 | Cl.N=C(N/N=C/c1ccc(Cl)cc1F)N/N=C/c1ccc(Cl)cc1F [NCL216] |  |  |  |  |  |  | 2 | 4 µg/mL | greatest activity | 2.5 | greatest activity | 3 | 2.75 | MIC (μg/ml) at 24 hours, MRSA 1 ([1]; MRSA 1, 24 hours): 2 µg/mL and 4 µg/mL; MIC (μg/ml) at 24 hours, P. aeruginosa ([2]; P. aeruginosa, 24 hours): >128 µg/mL; MIC (μg/ml) at 24 hours, VRE 1 ([3]; VRE 1, 24 hours): 2 µg/mL; MIC (μg/ml) at 24 hours, E. coli ([4]; E. coli): >128 µg/mL
